Test results published in PMC10482825 (Scientific Reports, 2023).
In brackets after ≈: the same amount, converted by molar mass. Where a SMILES comes first, the peptide text is derived from it.

What was measured:
[1] = tested on: MRSA; assay type: cell-based, Methicillin-resistant Staphylococcus aureus (ATCC, BAA-41); settings: micro-broth dilution, 3 h peptide treatment then MHB 18 h, 37 °C, OD 600 nm
Description: (§1) The microbial strains used in this study were Bacillus subtilis (ATCC, 11774), Candida albicans (TIMM, 1768), Enterococcus faecalis (ATCC, 33186), Escherichia coli (ATCC, 11775), Klebsiella pneumoniae (ATCC, 13883), Methicillin-resistant Staphylococcus aureus (ATCC, BAA-41), Pseudomonas aeruginosa (ATCC, 10145), Salmonella enterica (ATCC, 14028), Serratia marcescens (ATCC, 13880), Staphylococcus aureus (ATCC, 25923) and Vibrio parahaemolyticus (ATCC, 17802). All microbial strains were cultivated overnight at 37 °C and 200 rpm, then subcultured and incubated for 3 h under the same incubation conditions to obtain the mid-logarithmic growth phase. The cultivated cells were washed twice with 10 mM Tris–HCl containing 5 mM D-glucose at pH 7.4 and suspended in the same buffer to be used in different assays, as previously described.
(§2) As a conclusive quantitative assessment, broth microtiter assay was used to determine the MIC values of each cryptide against B. subtilis, MRSA, S. enterica, P. aeruginosa, V. parahaemolyticus and C. albicans by following the guidelines of the Clinical and Laboratory Standards Institute (CLSI)[67], with slight modifications. Eighty microliters of 5 × 10^4 CFU/ml of each pathogen were dispensed into a 96-well polypropylene microtiter plate. The wells were then treated with 20 µl of serially diluted cryptides for 3 h at 37 °C. Gentamicin was used for positive controls at 0.2 mg/ml while an equivalent volume of acidified water was used for negative controls. The plates were then topped up with a final concentration of 1 × Mueller Hinton Broth (MHB) and incubated for 18 h under the same incubation conditions. MIC was detected as the lowest concentration of each cryptide that prevents the optically detectable microbial growth at OD = 600 nm.

[2] = tested on: S. enterica; assay type: cell-based, Salmonella enterica (ATCC, 14028); settings: micro-broth dilution, 3 h peptide treatment then MHB 18 h, 37 °C, OD 600 nm
Description: as §1, §2

[3] = assay type: cell-based; settings: 24 h, serum-free medium, MTT, 37 °C, 5% CO2; mean ± SD; read-out: IC50 (µM) A459
Procedure: (§3) The used mammalian cell lines in our study were colorectal adenocarcinoma (Caco2, ATCC-HTB-37), colorectal carcinoma (HCT 116, ATCC-CCL-247), lung carcinoma (A549, ATCC- CCL-185), cervical cancer cells (HeLa, ATCC-CCL-2), neuroblastoma (SH-SY5Y, ATCC- CRL-2266), rhabdomyosarcoma (RD, ATCC- CCL-136) and human embryonic kidney cells (HEK 293, ATCC- CRL-1573). All the cells were maintained into Dulbecco’s Modified Eagle’s Medium (DMEM) supplemented with 10% heat-inactivated fetal bovine serum, 2 mM L-Glutamine, 100 U/ml penicillin–streptomycin (Pen/Strep) at 37 °C in 5% CO2 humidified incubator.
(§4) First, the cytotoxic effect of 24 h serum deprivation on all the selected cell lines was evaluated by MTT assay, following standard protocols. Briefly, cells were seeded and maintained at 37 °C and 5% CO2 in 24-well plates until they reached 75–80% confluency (zero time). Following washing twice with 1X PBS, cells were incubated in a serum-free medium for 24 h, under the same incubation conditions. The cell viability percentages were calculated and compared to zero time as 100% viability to nullify any possible effects of serum deprivation. Thence, the cell viability percentage of each cell line in response to 24 h treatment with different concentrations of each cryptide in serum-free medium was calculated. […] All the measured cell viability percentages were normalised against the corresponding negative controls.

[4] = tested on: RD; assay type: cell-based; settings: 24 h, serum-free medium, MTT, 37 °C, 5% CO2; mean ± SD
Procedure: as §3, §4

[5] = tested on: human RBCs; assay: Hemolytic assay; assay type: cell-based; settings: 2% RBCs in PBS, 2 h, 37 °C, supernatant at 450 nm, 0.1% TritonX-100 = maximum; highest tested concentration 100 µM
Procedure: All methods were carried out in accordance with the Declaration of Helsinki, and the Research Ethics Committee approved all experimental protocols at Sunway University (approval no. PGSUREC2020/005). A human blood sample was collected from a healthy person for this assay upon obtaining informed consent. The fresh blood sample was centrifuged at 3700 g for 5 min at RT. The supernatant (serum) was removed and red blood cells (RBCs) were washed three times with 1X PBS and diluted to a final concentration of 2% (PBS—137 mM NaCl, 2.7 mM KCl, 10 mM Na2HPO4, 1.76 mM KH2PO4). Cells were stored at 4 °C, and used within 5 h.
The hemolytic activities of the identified cryptides were evaluated as previously described. The prepared RBCs were treated with different peptide concentrations for 2 h at 37 °C. The treated RBCs were centrifuged, under the same centrifugation conditions, and the supernatants were transferred to a 96-well plate and measured at 450 nm.

[6] = tested on: S. enterica; assay type: cell-based, Salmonella enterica (ATCC, 14028); settings: 20 µl of wells without growth on agar, 18 h, 37 °C
[7] = tested on: E. coli K-1; assay: Radial diffusion assay; assay type: cell-based, Escherichia coli (ATCC, 11775); settings: 5 µl of 500 µM per 3 mm well, 37 °C, mean ± SD
Description: as §1
The antimicrobial activity spectra of the selected cryptides were screened against all the mentioned microbial pathogens, except V. parahaemolyticus, by radial diffusion assay as previously described, with slight modifications. […] The plates were then incubated for 18 h, and the antimicrobial activities were measured in the absolute unit (AU), as previously described. […]
plate. The plates were then incubated for 12 h at 37 °C and antimicrobial activities were measured in the term of absolute unit (A.U). […]

| Molecule | MIC (µM) MRSA [1] [µM] | MIC (µM) S. enterica [2] [µM] | IC50 [3] [µM] | IC50 [4] [µM] | Hemolysis of human RBCs at 100 µM [5] [%] | MBC (µM) S. enterica [6] [µM] | Antimicrobial activity (inhibition zone) E. coli K-1 [7] [A.U.] |
| --- | --- | --- | --- | --- | --- | --- | --- |
| CC(C)C[C@H](NC(=O)[C@H](CCCNC(=N)N)NC(=O)[C@H](Cc1c[nH]c2ccccc12)NC(=O)[C@H](CCCNC(=N)N)NC(=O)[C@H](CC(C)C)NC(=O)[C@@H](N)Cc1ccccc1)C(=O)N[C@@H](CCCCN)C(=O)N[C@@H](Cc1ccccc1)C(=O)N[C@@H](CCCCN)C(=O)N[C@@H](CO)C(=O)N[C@@H](CCCCN)C(=O)N[C@H](C(=O)N[C@@H](Cc1c[nH]c2ccccc12)C(=O)N[C@@H](CS)C(=O)N1CCC[C@H]1C(=O)O)C(C)C [AD7] (H-FLRWRLKFKSKVWCP-OH) | 3.12 (≈ 6.22 µg/mL) | 0.78 (≈ 1.56 µg/mL) | 8.5 ± 0.6 | 97.8 ± 0.2 | 26.5 | 0.78 (≈ 1.56 µg/mL) | – |
| CSCC[C@H](NC(=O)[C@H](CCCCN)NC(=O)CNC(=O)[C@H](CCCCN)NC(=O)[C@H](Cc1ccc(O)cc1)NC(=O)[C@H](CC(N)=O)NC(=O)[C@H](CC(C)C)NC(=O)[C@H](CCC(N)=O)NC(=O)[C@H](CC(C)C)NC(=O)[C@@H](N)CCCNC(=N)N)C(=O)N[C@@H](Cc1c[nH]c2ccccc12)C(=O)N[C@@H](CS)C(=O)N1CCC[C@H]1C(=O)NCC(=O)N[C@@H](Cc1c[nH]c2ccccc12)C(=O)O [AD11] (H-RLQLNYKGKMWCPGW-OH) | 6.25 (≈ 11.8 µg/mL) | 1.56 (≈ 2.93 µg/mL) | 11.1 ± 0.7 | 19.2 ± 0.9 | 20.7 | 1.56 (≈ 2.93 µg/mL) | – |
| RHCLRSKRPPNVCPH [AD4, cationic cryptide from P. vannamei precursor DN34505 (Pl-crustin 2), chemically synthesised] | 6.25 | 3.12 | 8.8 ± 1.1 | 15 ± 0.8 | – | 3.12 | 7.7 ± 1 |
